≈ marks a conversion by molar mass, not a printed value. Entries after “also recorded” stand apart in the source; their conditions may differ. Like-named read-outs stand apart in the source and are kept apart here.

Test [1] deals with MRSA USA500. Briefly: MIC against MRSA USA500. It counts as cell-based, Staphylococcus aureus. To be noted: TSB, 37 °C, 18–20 hours; for MIC: Staphylococcus aureus, read-out: MIC, Staphylococcus aureus isolate USA500. Here is the method: (§1) 96-well plates were seeded with 5 × 10^5 CFU/mL in a volume of 100 μL of tryptic soy broth (TSB) per well for Staphylococcus aureus assays. Compounds were dissolved in DMSO and serially diluted as 1:2 dilutions to give the final concentration ranging from 0.25 to 128 μg/mL per well. […] Plates were incubated at 37 °C for 18–20 hours and MIC was determined by reading OD625. For M.avium and M.abscessus, 7H9 broth media was used for determination of MICs. The final concentration was 5 × 10^5 CFU/mL in each well. The plate was incubated at 37 °C for 7–8 days and MICs were determined using a Tecan microplate reader (OD625) and resazurin reduction assay.

For test [2], the system named is MRSA USA200. Description: MIC against MRSA USA200. Type of test: cell-based, Staphylococcus aureus. The conditions noted are these: TSB, 37 °C, 18–20 hours; for MIC: Staphylococcus aureus, read-out: MIC, Staphylococcus aureus isolate USA200. Here is the method:
as §1

Test [3] deals with MRSA USA700. Description: MIC against MRSA USA700. Type of test: cell-based, Staphylococcus aureus. To be noted: TSB, 37 °C, 18–20 hours; for MIC: Staphylococcus aureus, read-out: MIC, Staphylococcus aureus isolate USA700. As for the experimental part:
as §1

The test system of test [4] is Methicillin susceptible Staphylococcus aureus. Description: MIC against MSSA. It counts as cell-based. To be noted: for MIC: MSSA. As for the experimental part:
as §1

Test [5] has as its system MRSA USA800. Briefly: MIC against MRSA USA800. It counts as cell-based, Staphylococcus aureus. The conditions noted are these: TSB, 37 °C, 18–20 hours; for MIC: Staphylococcus aureus, read-out: MIC, Staphylococcus aureus isolate USA800. Here is the method: as §1
For test [6], the system named is Mycobacterium avium. Briefly: MIC against Mycobacterium avium. Type of test: cell-based. To be noted: 7H9 broth, 7–8 days. As for the experimental part:
as §1

In test [7] the test system is IL-1β. Description: IL-1β release from THP-1 macrophages. The conditions noted are these: concentration equal to MIC, 24 h, 37 °C. It counts as cell-based, human. As for the experimental part:
(§2) THP-1 cells were differentiated into macrophages by treatment with PMA (7.5 ng/mL). Levels of the human cytokines (GM-CSF, IFN-γ, IL-1β, IL-2, IL-4, IL-5, IL-6, IL-8, IL-10, TNF-α) released from THP-1 macrophages were determined using a multiplex kit from Life Technologies according to the manufacturer’s instructions. In brief, the 96 well filter plate was pre-wetted, and then 25 μL of the diluted bead suspension was added to each well and washed twice. 100 μL of samples and standards were added to each well. The plate was incubated at room temperature for 2 h on a shaker. Following washing, biotinylated detection antibody was added and incubated for 1 h. After washing, streptavidin-RPE was added to each well and incubated for 0.5 h. The plate was again washed, resuspended in 100 μL of the washing buffer, and read on the Luminex xMAP™ system (Bio-Rad, AtheNA multi-Lyte™, USA). All samples were run in triplicate and standards were run in duplicate.

Test [8] relates to Enterococcus faecalis. Briefly: MIC against Enterococcus faecalis. Type of test: cell-based. To be noted: for MIC: read-out: MIC, EF.
The subject of test [9] is TNF-α. Briefly: TNF-α release from THP-1 macrophages. It counts as cell-based, human. The conditions noted are these: concentration equal to MIC, 24 h, 37 °C. Here is the method:
as §2

Test [10] has as its system Pseudomonas aeruginosa. Description: MIC against Pseudomonas aeruginosa. Type of test: cell-based. To be noted: for MIC: read-out: MIC, PA.
The subject of test [11] is IL-6. Description: IL-6 release from THP-1 macrophages. It counts as cell-based, human. The conditions noted are these: concentration equal to MIC, 24 h, 37 °C. Here is the method:
as §2

Test [12] deals with MRSA (USA 700). Description: Activity against extracellular MRSA in the presence of human MDMs. It counts as cell-based, Staphylococcus aureus. To be noted: extracellular MRSA USA700, MIC and MIC/4, 24 h. Here is the method: Human monocyte-derived macrophages (MDM) were cultured at a concentration of 1 × 10^6 cells/mL/well in a 24 well plate. MRSA (USA 700) was cultured in TSB (10 mL) until OD625 reached 0.4~0.5 and then centrifuged at 14,000 rpm for 10 min. The pellets were resuspended in 10 mL of DMEM supplemented with 10% human serum (no antibiotics). The bacteria medium was diluted with DMEM containing an inhibitor to obtain 1 × 10^6 CFU/mL and added to human MDMs (MOI = 1) in a 24-well plate. After 24 hour infection at 37 °C, the supernatants were serially diluted for CFU determination (TSA plates).

Test [13] has as its system MRSA USA400. Briefly: MIC against MRSA USA400. Type of test: cell-based, Staphylococcus aureus. To be noted: TSB, 37 °C, 18–20 hours; for MIC: Staphylococcus aureus, read-out: MIC, Staphylococcus aureus isolate USA400. As for the experimental part:
as §1

For test [14], the system named is MRSA USA100. Description: MIC against MRSA USA100. The conditions noted are these: TSB, 37 °C, 18–20 hours; for MIC: Staphylococcus aureus, read-out: MIC, Staphylococcus aureus isolate USA100. Type of test: cell-based, Staphylococcus aureus. As for the experimental part:
as §1

The test system of test [15] is MRSA USA300. Briefly: MIC against MRSA USA300. The conditions noted are these: TSB, 37 °C, 18–20 hours; for MIC: Staphylococcus aureus, read-out: MIC, Staphylococcus aureus isolate USA300. It counts as cell-based, Staphylococcus aureus. Here is the method:
as §1

The target of test [16] is MenA. To be noted: previously reported; cited from earlier work.
The subject of test [17] is Mycobacterium abscessus. Description: MIC against Mycobacterium abscessus. Type of test: cell-based. The conditions noted are these: Mycobacteroides abscessus, 7H9 broth, 7–8 days. As for the experimental part: as §1
Test [18] concerns MRSA (USA200). Description: Colony morphology / small colony variant formation on TSA. Type of test: cell-based, Staphylococcus aureus. To be noted: USA200 on TSA, 37 °C, up to 96 h (3a 4–16 μg/mL), 72 h (7c, rifampin). Here is the method: MRSA was streaked and then incubated on tryptic soy agar (TSA) containing 0, 2, 4, 8 or 16 μg/mL of inhibitor 3a or 4 μg/mL of 7C or 0.025 μg/mL of rifampin at 37 °C for 96 h. MK-4 (100 μg/mL) was supplemented in TSA containing 8 μg/mL of 3a for the rescue experiment.

Test [19] deals with MRSA strains. Description: MIC against MRSA strains (summary). To be noted: range over MRSA strains. Type of test: cell-based, Staphylococcus aureus. As for the experimental part:
as §1

In test [20] the test system is Gram-positive bacteria. Description: MIC against Gram-positive bacteria (summary). It counts as cell-based. The conditions noted are these: range over all tested Gram-positive bacteria. As for the experimental part:
as §1

Test [21] relates to MRSA USA 200. Description: Menaquinone (MK-4) rescue, resazurin reduction assay, USA 200. It counts as cell-based. To be noted: Staphylococcus aureus, read-out: MIC in the presence of MK-4. Here is the method: Resazurin reduction assay was performed in 96-well plate. MRSA was cultured in TSB until OD625 reached 0.4~0.5 and diluted and plated in 96-well plate. […] The plate was incubated overnight at 37 °C followed by 20 μL of resazurin (0.15 mg/mL) was added to each well. The plate was incubated for 2–4 h and fluorescence was measured at 560 nm excitation/590 nm emission.

`Brc1cc2ccc(OCCCCCCCCN3CCCCC3)cc2cc1OCc1ccccc1` [6b]: in [1], the “MIC, Staphylococcus aureus isolate USA500” value was 12 µg/mL (≈ 22.9 µM). In addition, in test [2], the “MIC, Staphylococcus aureus isolate USA200” value came out at 4 µg/mL (≈ 7.63 µM). Moreover, in test [3], the “MIC, Staphylococcus aureus isolate USA700” value was 16 µg/mL (≈ 30.5 µM). Further, in test [4], the “MIC, MSSA” value was found to be 4 µg/mL (≈ 7.63 µM). Further, the “MIC, Staphylococcus aureus isolate USA800” value in test [5] stood at 12 µg/mL (≈ 22.9 µM). In addition, the “MIC, MA” value in test [6] came to 2 µg/mL (≈ 3.81 µM). The “IL-1β released from THP-1 macrophages” value in test [7] is “stimulated the release”. For the same compound, in [8], the “MIC, EF” value came out at 2 µg/mL (≈ 3.81 µM). Also, in test [9], the “TNF-α released from THP-1 macrophages” value is “decreased”. Besides, the “MIC, PA” value in test [10] is above 128 µg/mL. The “IL-6 released from THP-1 macrophages” value in [11] is given as “decreased; also recorded: significantly reduced”. Moreover, in test [12], the “increase of antibacterial activity compared to activities with MDMs” value is listed as 1.5 – 3 fold and the “increase of antibacterial activity compared to activities without MDMs” value is recorded as 6–12 fold. In addition, in [13], the “MIC, Staphylococcus aureus isolate USA400” value was 6 µg/mL (≈ 11.4 µM). In addition, in test [14], the “MIC, Staphylococcus aureus isolate USA100” value amounted to 6 µg/mL (≈ 11.4 µM). In addition, the “MIC, Staphylococcus aureus isolate USA300” value in test [15] came to 6 µg/mL (≈ 11.4 µM).
In the case of `COc1ccc2ccc(OCCCCCCCCN3CCCCC3)cc2c1` [compound 2], the MIC is 16 µg/mL (≈ 43.3 µM) in test [3]; 16 µg/mL (≈ 43.3 µM) in test [4]; 16 µg/mL (≈ 43.3 µM) in [8]; above 64 µg/mL in [10]; 16 µg/mL (≈ 43.3 µM) in test [13]; 16 µg/mL (≈ 43.3 µM) in test [15]. The “M.tb IC50 (inhibition of both M.tb and MenA enzyme activity)” value in test [16] is 5 µg/mL.
Consider `Fc1ccc(CCNCCCOc2ccc3ccc(OCCCNCCc4ccc(F)cc4)cc3c2)cc1` [7c], for which the MIC in test [1] was found to be 8 µg/mL (≈ 15.4 µM); in test [2], 2 µg/mL (≈ 3.86 µM); in test [3], 2 µg/mL (≈ 3.86 µM); in test [4], 2 µg/mL (≈ 3.86 µM); in test [17], 6 µg/mL (≈ 11.6 µM); in [5], 4 µg/mL (≈ 7.71 µM). The MIC was 3 µg/mL (≈ 5.78 µM) in test [6]; 1 µg/mL (≈ 1.93 µM) in test [8]; above 128 µg/mL in [10]; 1 µg/mL (≈ 1.93 µM) in test [13]; 3 µg/mL (≈ 5.78 µM) in test [14]; 3 µg/mL (≈ 5.78 µM) in [15]. Moreover, the “induction of small colony variants (SCV)” value in test [18] is recorded as “did not induce SCV”. In addition, the “IL-1β released from THP-1 macrophages” value in test [7] is given as “stimulated the release”. In [19], the “MICs against MRSA strains (range)” value was in the range of 1 to 8 µg/mL. For the same compound, the “TNF-α released from THP-1 macrophages” value in test [9] is given as “decreased”. The “MIC values against all Gram-positive bacteria (range)” value in test [20] was in the range of 0.5 to 16 µg/mL. Besides, the “IL-6 released from THP-1 macrophages” value in test [11] is “decreased; also recorded: significantly reduced”. In addition, the “increase of antibacterial activity compared to activities with MDMs” value in test [12] is listed as 1.5 – 3 fold. Further, in test [12], the “increase of antibacterial activity compared to activities without MDMs” value is listed as 6–12 fold.
For `COc1ccc2ccc(OCCCCCCCCNCCc3ccc(Br)cc3)cc2c1` [3c], the MIC in [1] was determined as 6 µg/mL (≈ 12.4 µM); in test [2], 2 µg/mL (≈ 4.13 µM); in [3], 4 µg/mL (≈ 8.26 µM); in test [4], 4 µg/mL (≈ 8.26 µM); in test [17], 12 µg/mL (≈ 24.8 µM); in test [5] it was 6 µg/mL (≈ 12.4 µM). The MIC in test [6] was 4 µg/mL (≈ 8.26 µM); in [21] (USA 200, 0.05 mg/mL MK-4), 16 µg/mL; in test [21] (USA 200, 0.5 mg/mL MK-4), 64 µg/mL; in [8], 1 µg/mL (≈ 2.06 µM); in test [10] it was above 64 µg/mL; in [13], 4 µg/mL (≈ 8.26 µM). The MIC in test [14] amounted to 6 µg/mL (≈ 12.4 µM); in test [15], 4 µg/mL (≈ 8.26 µM). Further, in test [2], the “MIC, Staphylococcus aureus isolate USA200” value stood at 2 µg/mL (≈ 4.13 µM). Further, in test [20], the “MIC values against all Gram-positive bacteria (range)” value fell in the range of 0.5 to 16 µg/mL.
As for `C=CCN(C)CCCCCCCCOc1ccc2ccc(OC)cc2c1` [compound 1], the MIC in test [3] was 16 µg/mL (≈ 45 µM); in test [4] it was 32 µg/mL (≈ 90 µM); in [8], 8 µg/mL (≈ 22.5 µM); in test [10], 128 µg/mL (≈ 360 µM); in test [13], 16 µg/mL (≈ 45 µM); in test [15], 16 µg/mL (≈ 45 µM). Moreover, in test [16], the “M.tb IC50 (inhibition of both M.tb and MenA enzyme activity)” value is 6 µg/mL.

These data come from PMC5223195, “Novel long-chain compounds with both immunomodulatory and MenA inhibitory activities against Staphylococcus aureus and its biofilm” (Scientific Reports, 2017).
